US11051515B2, “3-acyl-benzamides and their use as herbicides” (Bayer Aktiengesellschaft, priority 2017, dated 2021)

Assays:
VERPE [1] = assay: Post-emergence action against VERPE; type: in vivo, Veronica persica; conditions: dosage 80 g/ha
How it was run: (§1)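 Post-emergence foliar spray on greenhouse plants at the one-leaf stage, using wettable-powder or emulsion-concentrate formulations in water (600 to […], plus 0.2% wetting agent). Damage scored by eye roughly 3 weeks later against untreated plants: 0% = like control, 100% = dead.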

SETVI [2] = assay: Pre-emergence action against SETVI; type: in vivo, Setaria viridis; conditions: pre-emergence, dosage 320 g/ha, scored visually after 3 weeks vs untreated controls
How it was run: (§2)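 Seeds sown in sandy loam in wood-fiber pots and covered with soil. Greenhouse growth; visual damage scored after 3 weeks versus untreated controls (100% = dead, 0% = like control).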

STEME [3] = assay: Post-emergence action against STEME; type: in vivo, Stellaria media; conditions: post-emergence, dosage 80 g/ha
How it was run: as §1

VERPE [4] = assay: Pre-emergence action against VERPE; type: in vivo, Veronica persica; conditions: Dosage 320 g/ha, pre-emergence
How it was run: as §2

VIOTR [5] = assay: Post-emergence action against VIOTR; type: in vivo, Viola tricolor; conditions: post-emergence, dosage 80 g/ha
How it was run: as §1

DIGSA [6] = assay: Pre-emergence action against DIGSA; type: in vivo, Digitaria sanguinalis; conditions: dosage 320 g/ha, scored visually after 3 weeks vs untreated controls
How it was run: as §2

ABUTH [7] = assay: Post-emergence action against ABUTH; type: in vivo, Abutilon theophrasti; conditions: post-emergence, dosage 80 g/ha, visual assessment about 3 weeks after treatment vs untreated controls
How it was run: as §1

AMARE [8] = assay: Pre-emergence action against AMARE; type: in vivo, Amaranthus retroflexus; conditions: pre-emergence, dosage 320 g/ha, scored visually after 3 weeks vs untreated controls
How it was run: as §2

VIOTR [9] = assay: Pre-emergence action against VIOTR; type: in vivo, Viola tricolor; conditions: Dosage 320 g/ha, pre-emergence
How it was run: as §2

ABUTH [10] = assay: Pre-emergence action against ABUTH; type: in vivo, Abutilon theophrasti; conditions: pre-emergence, dosage 320 g/ha, scored visually after 3 weeks vs untreated controls
How it was run: as §2

MATIN [11] = assay: Post-emergence action against MATIN; type: in vivo, Matricaria inodora; conditions: post-emergence, dosage 80 g/ha, visual assessment about 3 weeks after treatment vs untreated controls
How it was run: as §1

AMARE [12] = assay: Post-emergence action against AMARE; type: in vivo, Amaranthus retroflexus; conditions: post-emergence, dosage 80 g/ha, visual assessment about 3 weeks after treatment vs untreated controls
How it was run: as §1

MATIN [13] = assay: Pre-emergence action against MATIN; type: in vivo, Matricaria inodora; conditions: Dosage 320 g/ha, pre-emergence
How it was run: as §2

ECHCG [14] = assay: Pre-emergence action against ECHCG; type: in vivo, Echinochloa crus-galli; conditions: pre-emergence, dosage 320 g/ha, scored visually after 3 weeks vs untreated controls
How it was run: as §2

PHBPU [15] = assay: Post-emergence action against PHBPU; type: in vivo, Pharbitis purpurea; conditions: post-emergence, dosage 80 g/ha
How it was run: as §1

DIGSA [16] = assay: Post-emergence action against DIGSA; type: in vivo, Digitaria sanguinalis; conditions: dosage 80 g/ha, visual assessment about 3 weeks after treatment vs untreated controls
Procedure: Seeds of monocotyledonous and dicotyledonous weed and crop plants are laid out in sandy loam soil in wood-fiber pots, covered with soil and cultivated in a greenhouse under good growth conditions. 2 to 3 weeks after sowing, the test plants are treated at the one-leaf stage. The compounds of the invention, formulated in the form of wettable powders (WP) or as emulsion concentrates (EC), are then sprayed onto the green parts of the plants in the form of an aqueous suspension or emulsion at a water application rate equating to […], with addition of 0.2% wetting agent. After the test plants have been left to stand in the greenhouse under optimal growth conditions for about 3 weeks, the action of the preparations is assessed visually in comparison to untreated controls (herbicidal action in percent (%): 100% activity=the plants have died, 0% activity=like control plants). […] At the same time, inventive compounds leave Gramineae crops such as barley, wheat, rye, millet/Sorghum, corn or rice virtually undamaged when applied post-emergence, even at high active ingredient dosages. In addition, some substances are also harmless to dicotyledonous crops such as soya, cotton, oilseed rape, sugar beet or potatoes. Some of the compounds according to the invention have high selectivity and are therefore suitable for controlling unwanted vegetation in agricultural crops by the post-emergence method. The data of Tables B18 to B34 below illustrate, in an exemplary manner, the […] herbicidal action of the compounds according to the invention, the herbicidal activity being stated in percent.

STEME [17] = assay: Pre-emergence action against STEME; type: in vivo, Stellaria media; conditions: Dosage 320 g/ha, pre-emergence
How it was run: as §2

PHBPU [18] = assay: Pre-emergence action against PHBPU; type: in vivo, Pharbitis purpurea; conditions: Dosage 320 g/ha, pre-emergence
How it was run: as §2

POLCO = assay: Post-emergence action against POLCO; type: in vivo, Polygonum convolvulus; conditions: post-emergence, dosage 80 g/ha
How it was run: as §1

ALOMY = assay: Pre-emergence action against ALOMY; type: in vivo, Alopecurus myosuroides; conditions: dosage 320 g/ha; pre-emergence; scored visually after 3 weeks vs untreated controls; 100% = plants have died, 0% = like control plants
How it was run: as §2

ECHCG [19] = assay: Post-emergence action against ECHCG; type: in vivo, Echinochloa crus-galli; conditions: post-emergence, dosage 80 g/ha, visual assessment about 3 weeks after treatment vs untreated controls
How it was run: as §1

AVEFA = assay: Pre-emergence action against AVEFA; type: in vivo, Avena fatua; conditions: dosage 320 g/ha, scored visually after 3 weeks vs untreated controls
How it was run: as §2

SETVI [20] = assay: Post-emergence action against SETVI; type: in vivo, Setaria viridis; conditions: post-emergence, dosage 80 g/ha, visual assessment about 3 weeks after treatment vs untreated controls
How it was run: as §1

## Cn1nnnc1NC(=O)c1ccc(C(F)(F)F)c(C(=O)C2CCCC2)c1Cl [1-154]
VERPE [1]
  Post-emergence action against VERPE: 80
SETVI [2]
  SETVI (Table B8, pre-emergence herbicidal activity): 80%
STEME [3]
  Post-emergence action against STEME: 90
VERPE [4]
  Pre-emergence action against VERPE: 90%
VIOTR [5]
  Post-emergence action against VIOTR: 80
DIGSA [6]
  Pre-emergence action against DIGSA (herbicidal activity): 100%
ABUTH [7]
  Post-emergence action against ABUTH (herbicidal action in percent): 90%
AMARE [8]
  Pre-emergence action against AMARE (herbicidal activity): 100%
VIOTR [9]
  Pre-emergence action against VIOTR: 100%
ABUTH [10]
  Pre-emergence action against ABUTH (herbicidal activity): 100%
MATIN [11]
  Post-emergence action against MATIN (herbicidal action in percent): 80%
AMARE [12]
  Post-emergence action against AMARE (herbicidal action in percent): 90%
MATIN [13]
  Pre-emergence action against MATIN: 100%
ECHCG [14]
  Pre-emergence action against ECHCG (herbicidal activity): 100%
PHBPU [15]
  Post-emergence action against PHBPU: 80
DIGSA [16]
  Post-emergence action against DIGSA (herbicidal action in percent): 80%
STEME [17]
  Pre-emergence action against STEME: 100%

## CCn1nnnc1NC(=O)c1ccc(C(F)(F)F)c(C(=O)C2CCC2)c1SC [2-284]
VERPE [1]
  Post-emergence action against VERPE: 80
PHBPU [18]
  Pre-emergence action against PHBPU: 80%
SETVI [2]
  SETVI (Table B8, pre-emergence herbicidal activity): 100%
STEME [3]
  Post-emergence action against STEME: 100
VERPE [4]
  Pre-emergence action against VERPE: 100%
VIOTR [5]
  Post-emergence action against VIOTR: 80
POLCO
  Post-emergence action against POLCO: 80
DIGSA [6]
  Pre-emergence action against DIGSA (herbicidal activity): 100%
ABUTH [7]
  Post-emergence action against ABUTH (herbicidal action in percent): 100%
AMARE [8]
  Pre-emergence action against AMARE (herbicidal activity): 100%
VIOTR [9]
  Pre-emergence action against VIOTR: 100%
ABUTH [10]
  Pre-emergence action against ABUTH (herbicidal activity): 100%
MATIN [11]
  Post-emergence action against MATIN (herbicidal action in percent): 90%
ALOMY
  Pre-emergence action against ALOMY (herbicidal activity in percent): 90%
AMARE [12]
  Post-emergence action against AMARE (herbicidal action in percent): 100%
ECHCG [19]
  Post-emergence action against ECHCG (herbicidal action in percent): 90%
MATIN [13]
  Pre-emergence action against MATIN: 100%
ECHCG [14]
  Pre-emergence action against ECHCG (herbicidal activity): 100%
PHBPU [15]
  Post-emergence action against PHBPU: 90
DIGSA [16]
  Post-emergence action against DIGSA (herbicidal action in percent): 90%
AVEFA
  Pre-emergence action against AVEFA (herbicidal activity): 90%
SETVI [20]
  Post-emergence action against SETVI (herbicidal action in percent): 100%
STEME [17]
  Pre-emergence action against STEME: 100%

## CCn1nnnc1NC(=O)c1ccc(C(F)(F)F)c(C(=O)C(F)F)c1Cl [2-163]
PHBPU [18]
  Pre-emergence action against PHBPU: 100%
SETVI [2]
  SETVI (Table B8, pre-emergence herbicidal activity): 100%
STEME [3]
  Post-emergence action against STEME: 100
VIOTR [5]
  Post-emergence action against VIOTR: 100
DIGSA [6]
  Pre-emergence action against DIGSA (herbicidal activity): 90%
ABUTH [7]
  Post-emergence action against ABUTH (herbicidal action in percent): 90%
AMARE [8]
  Pre-emergence action against AMARE (herbicidal activity): 100%
VIOTR [9]
  Pre-emergence action against VIOTR: 100%
ABUTH [10]
  Pre-emergence action against ABUTH (herbicidal activity): 100%
MATIN [11]
  Post-emergence action against MATIN (herbicidal action in percent): 90%
AMARE [12]
  Post-emergence action against AMARE (herbicidal action in percent): 100%
ECHCG [19]
  Post-emergence action against ECHCG (herbicidal action in percent): 90%
MATIN [13]
  Pre-emergence action against MATIN: 100%
ECHCG [14]
  Pre-emergence action against ECHCG (herbicidal activity): 90%
PHBPU [15]
  Post-emergence action against PHBPU: 90
DIGSA [16]
  Post-emergence action against DIGSA (herbicidal action in percent): 100%
SETVI [20]
  Post-emergence action against SETVI (herbicidal action in percent): 80%
STEME [17]
  Pre-emergence action against STEME: 100%
